These results are taken from patent publication US6265423A, “Aromatic polycyclic retinoid-type derivatives, method for preparing same, and use thereof for making pharmaceutical and cosmetic compositions” (priority 1996, dated 2001).

Series [1] concerns T-47D human mammary cancer cells. Kind of series: MTT test, proliferation of T-47D. The class given is cell-based. As for the experimental part: (§1) The cells that were cultured came from the ATCC (American Type Culture Collection).
(§2) The cellular lines are kept in culture in a monolayer at 37° C. in closed culture dishes (Nunc. Gibco BRL, Life Technologies, Belgium) containing the minimum essential medium (MEM, Gibco) supplemented with 5% of Foetal Calf Serum, (FCS, Gibco), 0.6 mg/ml of glutamine (Gibco) and a mixture of 200 IU/mi of penicillin (Gibco), 200 μg/ml of streptomycin (Gibco) and 0.1 mg/ml of gentamycin (Gibco). The foetal calf serum is decomplemented for 1 hour at 56° C.
(§3) This test is based on the mitochondrial reduction by living metabolically active cells of the MTT (3-(4,5-dimethylthiazol-2-yl)-2,5-diphenyltetrazolium bromide) of yellowish colour into a blue coloured product, formazan. The quantity of formazan obtained is directly proportional to the number of living cells. After incubation of the cells for 24 hours in microplates with 96 flat bottomed wells, the culture medium is replaced by 100 μl of fresh culture medium containing the drug to be tested.
(§4) The microplates are then incubated for 3 hours at 37° C. and centrifuged for 10 minutes at 400 g (GPR centrifuge, Beckman). The MTT solution is replaced by 100 μl of dimethylsulphoxide (Merck). The microplates are agitated (Vari-Shaker, Dynatech) for 10 minutes.
(§5) In the microplates, the control cells like the treated cells were incubated in a medium without the compounds to be tested for 24 hours. The control cells are incubated in a medium without a drug throughout the whole experiment, while the treated cells are incubated in different media. These media contain the molecule to be tested at various concentrations: 10^-8 M, 10^-6 M and 10^-4 M. All the tests are carried out in 6 duplicates.
(§6) The statistical comparisons are carried out according to the Fisher Test:
(§7) The mean optical density measured for each experimental condition is expressed as a percentage in relation to the laid down control condition being equal to 100%.
Background: Tetrazolium dyes change colour on reduction, which living cells bring about.

Series [2] deals with A-427 human pulmonary cancer cells. Put plainly: MTT test, proliferation of A-427. The conditions noted are these: Homo sapiens, A-427, 72 h, read-out: level of proliferation.
The conditions of series [3]: cited from earlier work.
The subject of series [4] is ZR-75-1 human mammary cancer cells. Kind of series: MTT test, proliferation of ZR-75-1. The class given is cell-based. The procedure:
as §1, §2, §3, §4, §5, §6, §7

In series [5] the test system is A549 human pulmonary cancer cells. Kind of series: MTT test, proliferation of A549. The class given is cell-based.
Where [6] appears, read: Homo sapiens, A549, 72 h, read-out: level of proliferation.

As to `CC1=C(/C=C/C(C)=C/C=C/C(C)=C\C(=O)O)C(C)(C)CCC1` [CB81808, 13-cis retinoic acid, reference compound], the activity at 100 µM was determined as 9.94% in series [1] (Homo sapiens, T47D, T-47D, 10^-4 M, 72 h, control = 100%, read-out: level of proliferation); 6.5% in series [2]; 2.3% in series [4] (Homo sapiens, ZR-75-1, 10^-4 M, 72 h, control = 100%, read-out: level of proliferation); 23.6% in series [5] (setting [6]). For the same compound, the activity at 1 µM came out at 51.8% in series [1] (Homo sapiens, T47D, T-47D, 10^-6 M, 72 h, control = 100%, read-out: level of proliferation); 99.6% in series [2]; 55% in series [4] (Homo sapiens, ZR-75-1, 10^-6 M, 72 h, control = 100%, read-out: level of proliferation); 85.9% in series [5] (setting [6]). Also, the activity at 0.01 µM in series [1] (Homo sapiens, T47D, T-47D, 10^-8 M, 72 h, control = 100%, read-out: level of proliferation) stood at 70.3%; in series [2], 100%; in series [4] (Homo sapiens, ZR-75-1, 10^-8 M, 72 h, control = 100%, read-out: level of proliferation), 41.6%; in series [5] (setting [6]) it was 77.6%. For the same compound, the “effect on cellular increase, T-47D (in words)” value in series [1] (MTT test) is recorded as “inhibit the cellular increase of the two mammary lineages at the concentrations tested”. The “adverse effects in chronic treatment (in words)” value in series [3] was “powerful effect of hypervitaminose, of mucocutaneous toxicity and of teratogenecity”. Further, the “effect on cellular increase, ZR-75-1 (in words)” value in series [4] (MTT test) is “inhibit the cellular increase of the two mammary lineages at the concentrations tested”. For the same compound, the “effect on cellular increase, A549 (in words)” value in series [5] (MTT test) was “inhibit the proliferation of the A549 lineage at 10^-6 M and 10^-8 M”.
